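How tested: cells in 96-well plates exposed to compound for 48 hours at five concentrations. The concentration for 50% growth inhibition is given as GI50.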 Active and inactive are the calls of the source. No stated cut-off is given here; in the data, active = GI50 up to about 1.1 µM and inactive = higher.
Key:
Experiment in all cases: DTP human tumour cell line panel, 48 h
[1] = test system: 786-0
[2] = test system: ACHN
[3] = test system: BT-549
[4] = test system: DU-145
[5] = test system: HCC 2998
[6] = test system: HL-60
[7] = test system: Hs-578T
[8] = test system: MCF7
[9] = test system: MDA-MB-231
[10] = test system: MDA-MB-435
[11] = test system: MDA-N
[12] = test system: NCI-H226
[13] = test system: NCI/ADR-RES
[14] = test system: RXF 393
[15] = test system: SF-539
[16] = test system: SR
[17] = test system: T47D
[18] = test system: UACC-62
[19] = test system: HOP-92

Structure (SMILES) | GI50 [1] | GI50 [2] | GI50 [3] | GI50 [4] | GI50 [5] | GI50 [6] | GI50 [7] | GI50 [8] | GI50 [9] | GI50 [10] | GI50 [11] | GI50 [12] | GI50 [13] | GI50 [14] | GI50 [15] | GI50 [16] | GI50 [17] | GI50 [18] | GI50 [19]
CN1CCC2(CC1)C(=O)N(N1CCCCCC1)C(=O)N2c1ccccc1 | > 100 µM (inactive) | > 100 µM (inactive) | > 100 µM (inactive) | > 100 µM (inactive) | > 100 µM (inactive) | > 100 µM (inactive) | 42.2 µM (inactive) | > 100 µM (inactive) | > 100 µM (inactive) | > 100 µM (inactive) | > 100 µM (inactive) | > 100 µM (inactive) | > 100 µM (inactive) | 31.3 µM (inactive) | > 100 µM (inactive) | > 100 µM (inactive) | > 100 µM (inactive) | 96.6 µM (inactive) | –
C[C@@H]1CC[C@@]2(OC1)O[C@H]1[C@@H](O)[C@H]3[C@@H]4CC[C@H]5C[C@@H](O[C@@H]6O[C@H](CO)[C@H](O[C@@H]7O[C@H](CO)C(O)[C@H](O[C@@H]8OC[C@@H](O)[C@H](O)[C@H]8O)[C@H]7O[C@@H]7O[C@H](CO)[C@H](O)[C@H](O[C@@H]8O[C@H](CO)[C@@H](O)[C@H](O)[C@H]8O)[C@H]7O)[C@H](O)[C@H]6O)[C@H](O)C[C@]5(C)[C@H]4CC[C@]3(C)[C@H]1[C@@H]2C (some centres not stated) [DIGITONIN] | 1.61 µM (inactive) | 1.52 µM (inactive) | 1.63 µM (inactive) | 2.05 µM (inactive) | 1.66 µM (inactive) | 2.9 µM (inactive) | 2.06 µM (inactive) | 2.18 µM (inactive) | 2.48 µM (inactive) | 11.2 µM (inactive) | 3.33 µM (inactive) | 1.51 µM (inactive) | 3.89 µM (inactive) | – | 2.98 µM (inactive) | 2.37 µM (inactive) | 3 µM (inactive) | 4 µM (inactive) | 4.74 µM (inactive)
CCCNC1=Nc2ccccc2N(Cc2ccccc2)CC1 | 32.4 µM (inactive) | 23.2 µM (inactive) | 15.5 µM (inactive) | 33.9 µM (inactive) | – | 12.9 µM (inactive) | 14.9 µM (inactive) | – | 20.3 µM (inactive) | 19.1 µM (inactive) | 26 µM (inactive) | 26.6 µM (inactive) | 16.1 µM (inactive) | 11.6 µM (inactive) | – | – | – | 13.5 µM (inactive) | –
CC(C)c1cc2c(c(O)c1O)[C@@]1(C)CCCC(C)(C)C1=C(O)C2 | 2.51 µM (inactive) | 1.57 µM (inactive) | 1.36 µM (inactive) | 3.03 µM (inactive) | 1.01 µM (active) | 1.34 µM (inactive) | 1.81 µM (inactive) | 0.982 µM (active) | > 50 µM (inactive) | 1.23 µM (inactive) | 1.77 µM (inactive) | > 50 µM (inactive) | 0.809 µM (active) | 0.964 µM (active) | 0.726 µM (active) | 1.7 µM (inactive) | 2.04 µM (inactive) | 31.8 µM (inactive) | 0.817 µM (active)
Oc1cccc2c(Cl)ccnc12 | 10.9 µM (inactive) | 1.99 µM (inactive) | 13.7 µM (inactive) | 5.51 µM (inactive) | 4.43 µM (inactive) | 0.124 µM (active) | 7.93 µM (inactive) | 1.11 µM (active) | 1.13 µM (inactive) | 2.67 µM (inactive) | 3.58 µM (inactive) | 7.45 µM (inactive) | 2.3 µM (inactive) | 0.83 µM (active) | 2.11 µM (inactive) | 0.243 µM (active) | 0.397 µM (active) | 0.362 µM (active) | 2.84 µM (inactive)
O=C(/C=C/c1ccc2c(c1)OCO2)NCCc1ccco1 | – | 53 µM (inactive) | > 100 µM (inactive) | > 100 µM (inactive) | > 100 µM (inactive) | – | 65.3 µM (inactive) | 49.4 µM (inactive) | 44.8 µM (inactive) | 64.7 µM (inactive) | > 100 µM (inactive) | 90.2 µM (inactive) | 57.3 µM (inactive) | > 100 µM (inactive) | > 100 µM (inactive) | 18.5 µM (inactive) | 26.5 µM (inactive) | 44.2 µM (inactive) | 92.7 µM (inactive)
c1ccc(CN[C@]23C4C5CC6C7C5C2C7[C@@](NCc2ccccc2)(C64)N3Cc2ccccc2)cc1 (some centres not stated) | > 100 µM (inactive) | > 100 µM (inactive) | > 100 µM (inactive) | > 100 µM (inactive) | – | > 100 µM (inactive) | > 100 µM (inactive) | > 100 µM (inactive) | > 100 µM (inactive) | > 100 µM (inactive) | > 100 µM (inactive) | > 100 µM (inactive) | > 100 µM (inactive) | > 100 µM (inactive) | > 100 µM (inactive) | 3.94 µM (inactive) | > 100 µM (inactive) | > 100 µM (inactive) | > 100 µM (inactive)
Cc1c2ccccc2nc2[nH]c3ccncc3c12 | 16.3 µM (inactive) | 18.7 µM (inactive) | 40.6 µM (inactive) | 34.5 µM (inactive) | – | 26.9 µM (inactive) | 50.7 µM (inactive) | – | 78.5 µM (inactive) | 33 µM (inactive) | 35 µM (inactive) | – | 23.9 µM (inactive) | – | 36.8 µM (inactive) | 26.9 µM (inactive) | 33.7 µM (inactive) | 25.4 µM (inactive) | 33 µM (inactive)
